Active and inactive are the calls of the source. The rule behind the calls is not given here.
Key:
[1] = molecular target: T1, Nuclear receptor subfamily 1 group I member 2 (Homo sapiens, UniProt O75469); experiment: Activation of human PXR at 10 nM to 10 uM; format: ADME; settings: 0.01 µM
T1 sequence (O75469 whole entry): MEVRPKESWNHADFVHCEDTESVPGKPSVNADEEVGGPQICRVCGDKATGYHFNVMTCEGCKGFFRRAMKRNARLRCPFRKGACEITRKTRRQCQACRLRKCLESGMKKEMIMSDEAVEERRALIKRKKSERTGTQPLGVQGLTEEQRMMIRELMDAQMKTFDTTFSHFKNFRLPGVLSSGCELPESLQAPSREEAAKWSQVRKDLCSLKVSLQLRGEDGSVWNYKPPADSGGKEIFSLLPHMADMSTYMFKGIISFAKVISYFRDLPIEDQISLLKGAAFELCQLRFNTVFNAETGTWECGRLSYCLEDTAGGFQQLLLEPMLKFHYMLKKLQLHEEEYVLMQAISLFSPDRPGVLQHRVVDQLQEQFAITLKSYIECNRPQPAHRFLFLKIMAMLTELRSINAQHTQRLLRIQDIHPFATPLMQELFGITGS

[2] = tested on: NCI-H295R; experiment: Potentiation of doxorubicin-induced antitumor activity against human NCI-H295R cells xenografted in SCID mouse assessed as reduction in tumor volume at 10 mg/kg co-treated with 1.5 mg/kg doxorubicin after 40 days post dose; format: functional, organism-based
[3] = molecular target: P-gp (ABCB1) (Homo sapiens, UniProt P08183); experiment: Inhibition of P-gp in human K562/R7 cells assessed as daunorubicin accumulation at 10 uM incubated fro 1 hr by flow cytometry relative to cyclosporine A; format: cell-based; settings: probe daunorubicin, read-out: Activity
[4] = tested on: K562/R7; experiment: Potentiation of doxorubicin-induced antitumor activity against human K562/R7 cells xenografted in SCID mouse assessed as reduction in tumor volume at 10 mg/kg co-treated with 1.5 mg/kg doxorubicin after 40 days post dose; format: functional, organism-based
[5] = tested on: NCI-H295R; experiment: Potentiation of doxorubicin-induced antitumor activity against human NCI-H295R cells xenografted in SCID mouse assessed as reduction in tumor volume at 10 mg/kg co-treated with 1.5 mg/kg doxorubicin measured up to 80 days; format: functional, organism-based
[6] = molecular target: T2, Progesterone receptor (Homo sapiens, UniProt P06401); experiment: Displacement of [3H]ORG2058 from progesterone receptor in human breast carcinoma cytosol at 0.5 to 3.5 uM by liquid scintillation counting based DCC competitive binding assay
T2 sequence (P06401 whole entry): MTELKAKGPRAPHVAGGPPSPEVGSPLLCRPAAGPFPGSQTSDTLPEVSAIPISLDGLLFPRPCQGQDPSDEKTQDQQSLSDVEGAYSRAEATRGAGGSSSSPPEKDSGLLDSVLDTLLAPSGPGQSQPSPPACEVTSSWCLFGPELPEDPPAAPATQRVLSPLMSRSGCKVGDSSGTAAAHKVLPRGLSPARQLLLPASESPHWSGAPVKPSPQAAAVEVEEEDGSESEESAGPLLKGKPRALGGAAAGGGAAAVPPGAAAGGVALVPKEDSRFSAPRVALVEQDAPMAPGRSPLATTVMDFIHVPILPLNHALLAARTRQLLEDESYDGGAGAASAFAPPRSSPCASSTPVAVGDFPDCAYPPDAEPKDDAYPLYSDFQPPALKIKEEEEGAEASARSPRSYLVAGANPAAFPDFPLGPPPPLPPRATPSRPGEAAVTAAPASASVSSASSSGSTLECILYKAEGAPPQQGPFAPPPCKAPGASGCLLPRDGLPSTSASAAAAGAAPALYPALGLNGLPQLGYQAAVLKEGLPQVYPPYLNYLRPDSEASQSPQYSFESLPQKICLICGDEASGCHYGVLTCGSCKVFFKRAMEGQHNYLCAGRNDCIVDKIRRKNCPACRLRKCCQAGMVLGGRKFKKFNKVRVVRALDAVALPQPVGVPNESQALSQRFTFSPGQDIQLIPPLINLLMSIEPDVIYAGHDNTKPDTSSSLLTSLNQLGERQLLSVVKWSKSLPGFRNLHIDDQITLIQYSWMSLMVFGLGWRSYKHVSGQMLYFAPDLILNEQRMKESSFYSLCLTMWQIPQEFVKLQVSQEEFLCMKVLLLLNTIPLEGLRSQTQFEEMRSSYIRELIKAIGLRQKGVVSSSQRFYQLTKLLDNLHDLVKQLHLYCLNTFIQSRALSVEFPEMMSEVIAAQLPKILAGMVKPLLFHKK

[7] = tested on: K562/R7; experiment: Potentiation of doxorubicin-induced antitumor activity against human K562/R7 cells xenografted in SCID mouse assessed as reduction in tumor volume at 10 mg/kg co-treated with 1.5 mg/kg doxorubicin measured up to 80 days; format: functional, organism-based

P-gp (ABCB1), sequence (P08183 whole entry): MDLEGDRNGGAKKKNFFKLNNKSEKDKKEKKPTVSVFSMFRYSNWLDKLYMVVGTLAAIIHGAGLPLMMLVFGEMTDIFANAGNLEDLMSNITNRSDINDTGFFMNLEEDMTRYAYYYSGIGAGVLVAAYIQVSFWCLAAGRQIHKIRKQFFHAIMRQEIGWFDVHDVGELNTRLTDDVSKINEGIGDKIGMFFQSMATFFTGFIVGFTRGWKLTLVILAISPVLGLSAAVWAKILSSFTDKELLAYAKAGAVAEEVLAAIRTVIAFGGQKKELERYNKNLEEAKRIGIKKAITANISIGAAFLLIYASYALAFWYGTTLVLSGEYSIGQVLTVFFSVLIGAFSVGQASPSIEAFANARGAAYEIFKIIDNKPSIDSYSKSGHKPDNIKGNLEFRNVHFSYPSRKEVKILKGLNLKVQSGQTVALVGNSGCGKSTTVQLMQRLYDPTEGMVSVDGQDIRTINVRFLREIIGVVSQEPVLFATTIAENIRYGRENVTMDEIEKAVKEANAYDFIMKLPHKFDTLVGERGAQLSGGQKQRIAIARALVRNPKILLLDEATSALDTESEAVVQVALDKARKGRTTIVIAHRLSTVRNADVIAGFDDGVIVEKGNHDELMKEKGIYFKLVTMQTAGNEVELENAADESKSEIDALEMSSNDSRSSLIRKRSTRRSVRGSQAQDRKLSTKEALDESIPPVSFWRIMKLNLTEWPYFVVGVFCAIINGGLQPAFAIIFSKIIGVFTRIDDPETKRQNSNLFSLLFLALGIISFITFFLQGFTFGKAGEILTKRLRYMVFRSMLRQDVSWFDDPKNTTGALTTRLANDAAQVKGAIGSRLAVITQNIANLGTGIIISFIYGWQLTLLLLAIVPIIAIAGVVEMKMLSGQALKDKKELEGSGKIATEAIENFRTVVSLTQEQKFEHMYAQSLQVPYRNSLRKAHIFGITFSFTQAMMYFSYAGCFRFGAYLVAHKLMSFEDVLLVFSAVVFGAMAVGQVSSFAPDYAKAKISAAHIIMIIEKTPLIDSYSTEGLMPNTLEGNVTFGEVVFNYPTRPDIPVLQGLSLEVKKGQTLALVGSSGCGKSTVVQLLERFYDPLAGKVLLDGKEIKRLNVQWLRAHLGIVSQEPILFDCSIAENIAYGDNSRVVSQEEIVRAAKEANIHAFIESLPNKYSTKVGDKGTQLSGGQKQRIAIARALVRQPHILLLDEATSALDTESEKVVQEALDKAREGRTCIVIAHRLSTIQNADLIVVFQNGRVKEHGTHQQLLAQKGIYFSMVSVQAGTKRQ

SMILES	Activity [1]	Activity [6]	other results
CC(=O)[C@@]1(O[C@@H]2CCCCO2)CC[C@H]2[C@@H]3CC[C@@H]4CC(=O)CC[C@]4(C)[C@H]3[C@H](O[C@@H]3CCCCO3)C[C@@]21C	Not Active	–	–
CC(=O)[C@H]1CC[C@H]2[C@H]3[C@H]([C@H](O[C@@H]4CCCCO4)C[C@]12C)[C@@]1(C)CCC(=O)C[C@H]1C[C@@H]3OC(=O)c1ccccc1	Not Active	–	–
CC(=O)[C@H]1CC[C@H]2[C@H]3[C@H]([C@H](O[C@@H]4CCCCO4)C[C@]12C)[C@@]1(C)CCC(=O)C[C@H]1C[C@H]3OC(=O)c1ccccc1	Not Active	Not Active	Activity [2]: Active; inhibition at 1 h, 10 µM [3]: 119%; Activity [4]: Active; Activity [5]: Active; Activity [7]: Active
COC(=O)CC[C@@H](C)[C@H]1CC[C@H]2[C@@H]3[C@H](OC(=O)c4ccccc4)CC4CC(=O)CC[C@]4(C)[C@H]3C[C@H](O[C@@H]3CCCCO3)[C@]12C (single isomer, unassigned)	–	–	inhibition at 1 h, 10 µM [3]: 79.8%
CC(=O)[C@H]1CC[C@H]2[C@H]3[C@H]([C@H](OC(=O)c4ccccc4)C[C@]12C)[C@@]1(C)CCC(=O)C[C@H]1C[C@H]3OC(=O)c1ccccc1	Not Active	Not Active	–
CC(=O)[C@@]1(O[C@@H]2CCCCO2)CC[C@H]2[C@@H]3CC[C@@H]4CC(=O)CC[C@]4(C)[C@H]3[C@H](O[C@H]3CCCCO3)C[C@@]21C	Not Active	–	–
CC(=O)[C@@]1(O[C@H]2CCCCO2)CC[C@H]2[C@@H]3CC[C@@H]4CC(=O)CC[C@]4(C)[C@H]3[C@H](O[C@H]3CCCCO3)C[C@@]21C	Not Active	Not Active	–
CC(=O)[C@H]1CC[C@H]2[C@H]3[C@H]([C@H](OC(=O)c4ccccc4)C[C@]12C)[C@@]1(C)CCC(=O)C[C@H]1C[C@@H]3OC(=O)c1ccccc1	–	Not Active	–
